Reference: US20190315823A1, “SMALL CATIONIC ANTI-BIOFILM AND IDR PEPTIDES” (priority 2013, published 2019)
Where two headings read alike, the source gives them in different places. Marks after values point to notes of the source that are not given here. Ends that are not written are not given here. Peptide text beside a SMILES is read from it.

Experiments:
P. aeruginosa biofilm = type: cell-based; details: biofilm
Procedure: Methods of assessment of anti-biofilm activity—Biofilm formation was initially analyzed using a static abiotic solid surface assay as described elsewhere (de la Fuente-Nunez et al., 2012). […] Planktonic cells were removed, biofilm cells adhering to the side of the tubes were stained with crystal violet, and absorbance at 595 nm was measured using a microtiter plate reader (Bio-Tek Instruments Inc., United States). Some peptides were screened against two Gram negative organisms, P. aeruginosa and K. pneumoniae using a Bioflux apparatus (AutoMate Scientific, Berkeley, Calif.; http://www.autom8.com/bioflux_biofilm.html), which allows for the high-throughput, real-time analysis of biofilms.

[1] = tested on: human peripheral blood mononuclear cells (MCP-1); assay: SPOT-synthesized derivative screen: production of chemokine MCP-1; type: cell-based; details: No LPS
Summary of the method: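 MCP-1 was quantified by capture ELISA in cleared culture supernatants of treated human peripheral blood mononuclear cells. Cells came from heparinized volunteer blood via Ficoll gradient and were seeded at 0.75 to 1×10^6 cells/ml (37 °C, 5% CO2).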

[2] = tested on: LPS-stimulated human peripheral blood mononuclear cells (IL1-β); type: cell-based; details: cells stimulated with 10 ng/ml LPS; for IL1β Production (pg/ml): LPS alone 984 pg/ml, starred values (1002-2013) determined separately, LPS alone 889 pg/ml; for IL1β Production: LPS alone 1313 (HH2 derivatives), 1927 (1018 derivatives), 2455 (1002 and hybrid peptides) pg/ml
S. aureus biofilms = assay: checkerboard titration biofilm synergy (MBIC, FIC); type: cell-based
Procedure: Peptides and various conventional antibiotics were analyzed by checkerboard titration into microtiter trays using CLSI methods (Wiegand, I., K. Hilpert, and R. E. W. Hancock. 2008. Nature Protocols 3:163-175), bacteria added and, after overnight incubation at 37° C., the residual biofilm assessed by the crystal violet method mentioned in the body of the grant, with an A595 of 0.2 considered as 100% biofilm inhibition. The effects of the peptide in reducing the minimal biofilm inhibitory concentration (MBIC) of the antibiotic and vice versa were assessed using the Fractional Inhibitory Concentration (FIC) method whereby ΣFTC=FICA+FICB=(CA/MICA)+(CB/MICB), where MBICA and MBICB are the MBICs of peptide A and antibiotic B alone, respectively, and CA and CB (expressed in μg/ml) are the MICs of the drugs in combination. This conventional clinical microbiology assay is interpreted as follows

[3] = tested on: methicillin resistant Staphylococcus aureus (MRSA) biofilm; details: approximate peptide concentration […] (around 3 μg/ml); compared to untreated samples
Summary of the method: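 Peptide was present from inoculation onward, with bacteria seeded at 1/100 from overnight cultures into BM2 biofilm medium or Luria Broth. Crystal violet staining of surface-attached cells (A595) quantified biofilm reduction at 22–46 h. K. pneumoniae was additionally screened in a real-time Bioflux flow device for some peptides.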

[4] = Table 12A, background subtracted (21.3 pg/ml)
[5] = Table 12A, 1002-2013 compared to LPS control of 889 pg/ml
[6] = Table 12, human PBMC, peptide at ~18-24 μM
[7] = Table 12, human PBMC, peptide at ~18-24 μM, background subtracted 139 (HH2 derivatives), 170 (1018 derivatives), 242 (1002 and hybrid peptides) pg/ml

| Compound | MBIC50 P. aeruginosa (P. aeruginosa biofilm) [µg/mL] | Fold increase in MCP1 cf. untreated cells ([1]; Table 12A) | MCP1 [1, 4] [pg/mL] | Fold change in IL1β relative to no peptide LPS stimulated cells [2, 5] | IL1β Production (pg/ml) ([2]; Table 12A) | Fold increase in MCP1 cf. untreated cells [1, 6] | MCP1 [1, 7] [pg/mL] | Fold change in IL1β relative to no peptide LPS stimulated cells ([2]; Table 12) | IL1β Production ([2]; Table 12) [pg/mL] | FIC (S. aureus biofilms; antibiotic in combination with peptide DJK6) | Fold decrease in antibiotic concentration (S. aureus biofilms; in the presence of peptide DJK6) | % Biofilm inhibition [3] [%] |
| --- | --- | --- | --- | --- | --- | --- | --- | --- | --- | --- | --- | --- |
| CC[C@H](C)[C@H](NC(=O)[C@H](CCCNC(=N)N)NC(=O)[C@H](Cc1c[nH]c2ccccc12)NC(=O)[C@H](CCCNC(=N)N)NC(=O)[C@@H](NC(=O)[C@H](CC(C)C)NC(=O)[C@H](Cc1c[nH]c2ccccc12)NC(=O)[C@H](CCCNC(=N)N)NC(=O)[C@H](CCC(N)=O)NC(=O)[C@@H](N)CCCCN)[C@@H](C)CC)C(=O)N[C@@H](CCCNC(=N)N)C(=O)N[C@@H](CCCCN)C(N)=O [Peptide 2010] (H-KQRWLIRWRIRK-NH2; N-terminus assumed) | 2.5 | 266 | 5649 | 0.42 | 377* pg/ml |  |  |  |  |  |  |  |
| CC[C@H](C)[C@H](NC(=O)[C@H](CCCNC(=N)N)NC(=O)[C@H](CC(C)C)NC(=O)[C@H](CCC(N)=O)NC(=O)[C@@H](N)C(C)C)C(=O)N[C@@H](CCCNC(=N)N)C(=O)N[C@H](C(=O)N[C@@H](CCCCN)C(=O)N[C@H](C(=O)N[C@H](C(=O)N[C@@H](CCCNC(=N)N)C(=O)N[C@@H](CCCCN)C(N)=O)[C@@H](C)CC)C(C)C)C(C)C [Peptide 2011] (H-VQLRIRVKVIRK-NH2; N-terminus assumed) | 10 | 38 | 796 | 0.62 | 550* pg/ml |  |  |  |  |  |  |  |
| CC[C@H](C)[C@H](NC(=O)[C@H](CCCNC(=N)N)NC(=O)[C@H](Cc1c[nH]c2ccccc12)NC(=O)[C@@H](NC(=O)[C@@H](NC(=O)[C@H](CC(C)C)NC(=O)[C@H](Cc1c[nH]c2ccccc12)NC(=O)[C@H](CCCNC(=N)N)NC(=O)[C@H](CCC(N)=O)NC(=O)[C@@H](N)C(C)C)[C@@H](C)CC)C(C)C)C(=O)N[C@@H](CCCNC(=N)N)C(=O)N[C@@H](CCCCN)C(N)=O [Peptide 1002] (H-VQRWLIVWRIRK-NH2; N-terminus assumed) | 5 | 576 | 11994 | 0.13 | 111* pg/ml | 3.5 | 603.2 | 0.05 | 127 |  |  |  |
| CN[C@H](CC(C)C)C(=O)N[C@H]1C(=O)N[C@@H](CC(N)=O)C(=O)N[C@H]2C(=O)N[C@H]3C(=O)N[C@H](C(=O)N[C@H](C(=O)O)c4cc(O)cc(O)c4-c4cc3ccc4O)[C@H](O)c3ccc(c(Cl)c3)Oc3cc2cc(c3O[C@@H]2O[C@H](CO)[C@@H](O)[C@H](O)[C@H]2O[C@H]2C[C@](C)(N)[C@H](O)[C@H](C)O2)Oc2ccc(cc2Cl)[C@H]1O [Vancomycin] |  |  |  |  |  |  |  |  |  | 0.4 | 16 |  |
| HH2-W3: single substituted HH2 peptide (VQWRIRVAVIRA-NH2) |  |  |  |  |  | 21 | 3418 | 0.67 | 874 |  |  | 62 |
| 1002-Q11: single substituted 1002 peptide (VQRWLIVWRIQK-NH2) [Peptide 1002-Q11] |  |  |  |  |  | 13.5 | 3022.9 | 0.05 | 127 |  |  | 67 |
| HH2-Q3: single substituted HH2 peptide (VQQRIRVAVIRA-NH2) |  |  |  |  |  | 6.8 | 989 | 0.87 | 1141 |  |  | 28 |
| 1018-V6: single substituted 1018 peptide (VRLIVVVRIWRR-NH2) [Peptide 1018-V6] |  |  |  |  |  | 1.6 | 110 | 0.17 | 226 |  |  | 70 |
| 1018-G12: single substituted 1018 peptide (VRLIVAVRIWRG-NH2) [Peptide 1018-G12] |  |  |  |  |  | 1.0 | 7 | 0.37 | 490 |  |  | 53 |
| HH2-A10: single substituted HH2 peptide (VQLRIRVAVARA-NH2) |  |  |  |  |  | 2.5 | 258 | 1.70 | 2234 |  |  | 53 |
| 1018-G4: single substituted 1018 peptide (VRLGVAVRIWRR-NH2) [Peptide 1018-G4] |  |  |  |  |  | 1.2 | 32 | 0.39 | 511 |  |  | 63 |
| 1018-Q8: single substituted 1018 peptide (VRLIVAVQIWRR-NH2) [Peptide 1018-Q8] |  |  |  |  |  | 0.4 | -104 | 0.10 | 127 |  |  | 51 |
| 1018-L1: single substituted 1018 peptide (LRLIVAVRIWRR-NH2) [Peptide 1018-L1] |  |  |  |  |  | 4.1 | 531 | 0.21 | 282 |  |  | 72 |
| HH2-K9: single substituted HH2 peptide (VQLRIRVAKIRA-NH2) |  |  |  |  |  | 2.1 | 180 | 1.16 | 1520 |  |  | 52 |
| HH2-W9: single substituted HH2 peptide (VQLRIRVAWIRA-NH2) |  |  |  |  |  | 31 | 4995 | 0.80 | 1050 |  |  | 75 |
| HH2-V6: single substituted HH2 peptide (VQLRIVVAVIRA-NH2) |  |  |  |  |  | 40 | 6624 | 0.53 | 694 |  |  | 39 |
| 1018-V4: single substituted 1018 peptide (VRLVVAVRIWRR-NH2) [Peptide 1018-V4] |  |  |  |  |  | 1.2 | 29 | 0.11 | 144 |  |  | 75 |
| 1018-V8: single substituted 1018 peptide (VRLIVAVVIWRR-NH2) [Peptide 1018-V8] |  |  |  |  |  | 1.2 | 29 | 0.35 | 463 |  |  | 34 |
| 1002-Q10: single substituted 1002 peptide (VQRWLIVWRQRK-NH2) [Peptide 1002-Q10] |  |  |  |  |  | 1.3 | 71.2 | 0.05 | 127 |  |  | 39 |
| HH2-R12: single substituted HH2 peptide (VQLRIRVAVIRR-NH2) |  |  |  |  |  | 51 | 8574 | 1.23 | 1618 |  |  | 80 |
| 1018-W7: single substituted 1018 peptide (VRLIVAWRIWRR-NH2) [Peptide 1018-W7] |  |  |  |  |  | 0.8 | -28 | 0.37 | 483 |  |  | 55 |
